The record followed here is a melting point compilation (Tetko et al.; mined from patent text by program, amines drawn as free bases though some values may be those of a salt).

Structures are written as SMILES.

Turning to `CCOC(=O)c1ccc(/C=C(\COCc2ccc(OC)cc2)Cn2ccnc2)c(OC)c1`, the melting point lay in the range of 74 to 74.5 °C.
For `CC(=O)C1(c2ccccc2)CCN(C(=O)C(c2ccccc2)n2cnc3[nH]ncc3c2=S)CC1` (stereo unspecified) the value was 125 to 128 °C.
For `NC[C@@H]1CNc2cccc(-c3cc(Cl)ccc3Cl)c2O1` the value was 130 °C; for `CCCc1c(C(C)C)nn2ccccc12`, 41 to 42 °C; for `CCCn1nc2c(N)nc3ccccc3c2c1CCCCS(N)(=O)=O`, 211 to 213 °C.
For `CN(Cc1cc2c(=O)c(C(=O)NCc3ccc(Cl)cc3)cn(C)c2o1)CC(O)c1ncccn1` (single isomer, unassigned; (+)) the value was 127 to 129 °C; for `Cc1cc(-c2nc3ccccc3c(=O)n2-c2ccc(I)cc2)cc(C)c1OCCO`, 101 to 103 °C; for `COC(=O)COc1ccc(C(=O)NN(C)C(=O)c2ccc(C(N)=S)cc2)cc1`, 169 to 170 °C.
For `COC1(c2ccc(Sc3ccc4c(c3)CCC(=S)N4C)s2)CCOCC1`, the melting point was 100 to 102 °C.
In turn, `Cc1cc(-c2ccccc2)co1` yielded a melting point of 89 to 91 °C.
The value for `COc1ccc2c(c1)CCC1C2CCC2(C)C(=O)C(Br)CC12` (stereo unspecified) was 146 to 149 °C; that for `CCCc1ccc(-c2ccc(-c3ccc(O)cc3)nn2)cc1` was 220 to 223 °C.
Turning to `Cc1cc(C(=O)OC2CC(C)(C)NC(C)(C)C2)c(C)o1`, the melting point lay within 59 to 61 °C.
For `CCOP(=O)(Cc1ccc(C(=S)Nc2nc3c(s2)Cc2c(Cl)cccc2-3)cc1)OCC` the value was 180 °C; for `CCCC(=O)c1cnc2ccccc2c1Nc1ccccc1OC`, 167 to 168 °C.
The value for `O=C(CCCCl)c1ccc2c(c1)Cc1cc(C(=O)CCCCl)ccc1-2` was 172 to 175 °C; that for `C=CCNc1nnc(-c2ccc(F)c(F)c2Nc2ccc(I)cc2F)o1` was 175 to 178 °C.
The value for `CN1C(=O)C(C)(C)C(=O)N(C)c2cc(N)ccc21` was 221 to 222 °C; that for `Cn1cc(-c2ccc(Cl)c(OC3SCC(O)C(O)C3O)c2)cn1` (stereo unspecified) was 158 °C; that for `CCCCCCCCCCCNC(=O)NCCCC` was 70 °C.
Regarding `NC(=O)C1CCc2sc3ccc(F)cc3c2C1` (stereo unspecified), the melting point was 201 to 202 °C.
The value for `Cn1c(Cl)c(Cl)c(C(=O)c2cc(C(C)(C)C)c(O)c(C(C)(C)C)c2)c1Cl` was 155 to 156 °C; that for `CCOCc1cc2cc(Br)ccc2oc1=Nc1ccc(F)cc1` was 153 to 154 °C.
The value for `CCOC(=O)c1c(C)nc2ccn(-c3ccc(Cl)cc3)n2c1=O` was 175 to 177 °C.
Compound `O=[N+]([O-])c1cc(I)cnc1Cl` displayed a melting point of 77 to 79 °C.
In the case of `C[C@@H]1CN(CCNC(=S)N(C)C)CC[C@@H]1Nc1nc2ccccc2n1Cc1ccc(F)cc1` (relative stereo), the melting point stood at 127 °C.
Regarding `CCN(CC)c1ccc(C2(c3ccc(N(CC)CC)cc3N(CC)CC)OC(=O)c3c(Cl)c(Cl)c(Cl)c(Cl)c32)c(C)c1` (stereo unspecified), the melting point fell in the range of 162 to 164 °C.
For `O=C(NCc1ccc(Cl)cc1)c1coc2ccc(C#CCO)cc2c1=O` the value was 182 to 183 °C; for `Cc1nc(N(C)C)ncc1OCc1ccccc1`, 73 to 74 °C.
For `COc1cc2c(cc1OC)C1(CCC(=O)NC1=O)CCC2=O` (stereo unspecified) the value was 269 to 271 °C; for `CC(=O)c1ccc2c(c1)C(=O)c1ccccc1CN2`, 206 to 207 °C; for `CC[C@H](C1CC1)n1cc(Cl)nc(N2CCc3cc(OC)cc(Br)c32)c1=O`, 138 to 140 °C.
The value for `CSC(=NC#N)N[C@@H]1c2cc(S(C)(=O)=O)ccc2OC(C)(C)[C@H]1O` (relative stereo) was 219 to 220 °C; that for `O=C(NC(CO)(CO)CO)c1cc2ccnc(Cl)c2[nH]1` was 218 to 220 °C; that for `CCOC(=O)c1cn(Cc2cnsn2)c2c(F)c(F)c(F)cc2c1=O` was 200 to 203 °C.
As to `CC1(C)OC(=O)C(=CNc2ncnc3ccccc23)C(=O)O1`, the melting point is 191 to 193 °C.
The value for `CC(=O)c1ccc2cc(C(C)Br)ccc2c1` (stereo unspecified) was 64 to 66 °C; that for `O=C1Cc2ccccc2C(c2ccccc2C(F)(F)F)N1` (stereo unspecified) was 210 to 212 °C; that for `CCCCS(=O)(=O)NC1Cc2ccc(C(=O)CCC(=O)O)cc2C1` (stereo unspecified) was 138 to 140 °C.
The value for `CC1(C)c2cc(OCc3ccccc3)ccc2OC1CO` (stereo unspecified) was 55 to 58 °C; that for `C=CCN1Cc2nc3c(cnn3CCCl)c(N)c2C1=O` was 198 to 199 °C.
The value for `[N-]=[N+]=NCn1cc(Cl)c(-c2cc(Cl)cc(Cl)c2)n1` was 74 °C.
Compound `OCCCc1cnoc1-c1ccc(Cl)c(Cl)c1` returned a melting point of 66 to 67 °C.
The compound `CCOC(=O)CN1C(=O)[C@@H](NC(=O)OC(C)(C)C)CCc2ccccc21` yielded a melting point of 99 to 101 °C.
With `Nc1ccc(C(=O)c2ccncc2)cc1`, the melting point turned out to be 152 °C.
The value for `CCc1cn(C2CC(O)C(CCCNC(=O)Cc3c(Cl)cccc3Cl)O2)c(=O)[nH]c1=O` (stereo unspecified) was 227 to 229 °C.
Take `CCN1CCN(c2ccnc(-c3nc(=O)c4ccccc4s3)c2)C1=O`: the melting point was 212 to 213 °C.
The value for `CCCCCC1(Cl)Cc2cc(OCC(=O)O)c(Cl)c(Cl)c2C1=O` (stereo unspecified) was 122 to 124 °C; that for `CN(Cc1ccc(NC(=O)C2=Cc3cc(-c4cccc(C(F)(F)F)c4)ccc3S(=O)(=O)CC2)cc1)C1CCOCC1` was 236 to 238 °C; that for `Cc1ccccc1C(C)Oc1cc(OCc2ccsc2)ccc1C(=O)CC(=O)C(=O)O` (racemic) was 124 to 126 °C.
For `CCOC(=O)COc1cc2c(c(Cl)c1Cl)C(=O)C(c1ccc(Cl)cc1)C2` (stereo unspecified) the value was 160 °C; for `CCCCCCCCCCCCCCCCCCOc1ccc(C(=O)O)c(OCCCOc2ccc(O)cc2)c1`, 97 to 100 °C.
`CCCCc1nc(Cl)c(CC(=O)OCC)c(Cc2ccc(-c3ccccc3C#N)cc2)n1` displayed a melting point of 66 °C.
The value for `Cc1ccc(Cl)c(Nc2ccccc2-c2nnc(NC#N)o2)c1Cl` was more than 215 °C; that for `O=C1N(Cc2ccc(C(F)(F)F)o2)c2ccccc2C12COc1cc(OC(F)(F)F)ccc12` (stereo unspecified) was 78 to 80 °C; that for `O=C(Nc1ccc(C(=O)N2Cc3ccccc3Cc3ccccc32)cc1)c1cc(Cl)cc(Cl)c1` was 257 to 259 °C.
The value for `CC(=O)NC(=S)NC1CC2c3cccc4[nH]cc(c34)CC2N(C)C1` (stereo unspecified) was 240 to 242 °C; that for `CCOC(=O)c1cnn2c1nc(Cl)c1cnc3c(cnn3CC)c12` was 170 to 172 °C; that for `CC(=CC(=O)O)c1ccc([N+](=O)[O-])cc1` was 167 to 169 °C.
The value for `Cc1[nH]cc2c1-c1ccc(Cl)cc1C(c1ccccc1Cl)=NC2` was 219 to 222 °C; that for `Cc1ccc(C(=O)c2c(C)cc(C)cc2OCC(O)CNC(C)C)cc1` (stereo unspecified) was 89 to 91 °C.
On to `CN1CCN(c2ccc(/C=C/c3cc(/C=C/c4ccc5cc[nH]c5c4)[nH]n3)c(Br)c2)CC1`, for which the melting point is 120 to 124 °C.
The value for `CCCCNC(=O)[C@@H](C[C@H](O)[C@@H](N)CC1CCCCCC1)C(C)C` was 81 to 82 °C.
`CC(C)(C)OC(=O)C(ON)c1ccccc1` (stereo unspecified) came in with a melting point of 48.2 to 49.6 °C.
For `CCOC(=O)CN1C(=O)C(=Cc2ccccc2)SC1=S` the value was 122 to 125 °C.
The value for `OC1(F)OC(F)(F)C1(F)F` (stereo unspecified) was 90 to 91 °C; that for `CN(C(=O)c1ccc2nonc2c1)C1CCOCC1` was 160 to 162 °C.
The value for `COC(=O)c1ccc(-c2ccccn2)cc1` was 96 °C; that for `CC(C)(C)OC(=O)N[C@@H](C(=O)N1CCC[C@H]1C(=O)NCC1CCc2n[nH]cc2C1)C(c1ccccc1)c1ccccc1` (stereo partly specified) was 113 to 116 °C.
Consider `c1ccc(-c2nnc3c4c(c(OCc5ccccn5)nn23)CCCC4)cc1`, for which the melting point is 194 °C.
The value for `O=C1NCC(c2cn3c4c(cccc24)CCC3)=C1c1c[nH]c2ccccc12` was 260 to 262 °C; that for `CC(=O)Nc1nc(C)c(CCCl)s1` was 172 to 174 °C; that for `Nc1n[nH]cc1S(=O)(=O)c1ccccc1` was 159 to 161 °C.
For `COc1ccc2c(Cl)nc(Cl)nc2c1OC` the value was 153 to 155 °C; for `O=C(Cc1cccnc1)c1ccc(Oc2ccccc2)cc1`, 81 to 83 °C; for `CC(C)(C)c1ccccc1C(=O)O`, 38.5 to 40.5 °C.
Regarding `N#Cc1cnc2sc(Br)cc2c1O`, the melting point is more than 255 °C.
For the compound `CC(=O)N1CCC(CCC(=O)c2ccc3c(c2)CCN3C(C)=O)CC1`, the melting point is 148 to 149 °C.
The value for `CCC1=Nc2c(C)nn(C)c2C2=NC(C)CN12` (stereo unspecified) was 153 to 155 °C; that for `CSCCN(c1ccc(Cl)cc1[N+](=O)[O-])S(=O)(=O)c1ccc(C)cc1` was 94.5 to 95.5 °C.
For `CCOC(=O)COC(=O)c1cc(NC(=O)OCc2ccccc2)ccc1OCC(=O)OCC` the value was 77 to 78 °C; for `Cc1cc(C)c(S(=O)(=O)NC(CSc2ccccc2)C(F)(F)F)c(C)c1` (stereo unspecified), 76 to 78 °C; for `O=C(NCCCCCOc1cc(CN2CCCCC2)ccn1)c1cn[nH]c1`, 105 to 106 °C.
`CCOC(=O)C1C(=O)Nc2ccccc2SC1c1ccccc1` (stereo unspecified) showed a melting point of 199 °C.
For `CCc1cc(NC(=O)N2CCN(c3cc(C)cc(C)c3)CC2)c(N2CCNCC2)nc1C` the value was 100 to 102 °C; for `Cn1c([N+](=O)[O-])cnc1-c1nnc2ccc(N=CNC3CCCCC3)nn12`, 198 to 200 °C; for `Cc1ccc(C23CCC(O)(CC2)CC3)cc1`, 144 °C.
The value for `CC1C(=O)Oc2cc(C3CCCCC3)ccc21` (stereo unspecified) was 87 to 89 °C; that for `Cc1noc(-c2cccc(CN3CCN(c4ccc(N)cc4)CC3)c2)n1` was 106 to 108 °C.
For `COc1ccccc1-c1[nH]c2cccc3c2c1CCNC3=O` the value was 254 to 255 °C; for `c1ccc(-c2ccn3nccc3n2)cc1`, 122 to 124 °C.

As usually defined, the melting point is the temperature, or range, at which the solid turns liquid.
